Data set [1] relates to NCI-N87 (HER2-positive gastric cancer cell line). Nature of the data set: antiproliferative effect, NCI-N87. Conditions: 72 hours. The format is cell-based.
The target in data set [2] is T1, (His)6-MED23391-582 / FITC-ELF3129-145 peptide (Homo sapiens, UniProt Q9ULK4).
T1 construct: 391-582 and fluorescein isothiocyanate (FITC)-labeled
T1 sequence (Q9ULK4 391-582 limits assumed): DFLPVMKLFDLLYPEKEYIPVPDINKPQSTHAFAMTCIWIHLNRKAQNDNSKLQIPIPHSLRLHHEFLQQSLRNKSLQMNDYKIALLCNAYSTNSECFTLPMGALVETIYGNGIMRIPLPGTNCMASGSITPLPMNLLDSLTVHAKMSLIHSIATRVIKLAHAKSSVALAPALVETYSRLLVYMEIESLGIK
The data set can be described thus: fluorescence polarization displacement assay. Type of data set: binding. The method, then: The samples, adjusted to a final volume of 50 μL, were incubated at room temperature for 30 minutes. Kd values were calculated using a least-squares non-linear fit method with Prism 6.0 software (GraphPad Software, USA). FP signals were measured in millipolarization (mP) units using an Infinite F200 PRO microplate reader (Tecan Group Ltd., Switzerland) at an excitation wavelength of 485 nm and an emission wavelength of 535 nm. For displacement analysis, graded concentrations of YK1 and unlabeled ELF3137-144 peptides were mixed with 80 nM (His) 6-MED23391-582 and 10 nM FITC-ELF3129-145.
The effect of compound YK1 was confirmed by measuring the reduction in FP signals, using unlabeled peptides as a positive control. The IC50 of each compound was determined by fitting the data to a four-parameter logistic equation using the Table Curve 2D program (SPSS Inc.). The Ki value was calculated using the Cheng-Prusoff equation (Ki=IC50/1+([Ligand]/Kd))
In general terms: Polarisation of emitted light reports the rotation of a fluorescent probe.

Data set [3] concerns the target EGFR (Homo sapiens, UniProt P00533). The data set can be described thus: kinase profiling, EGFR. The format is biochemical. Conditions: read-out: In vitro kinase inhibitory activity (%). The method, then: (§1) Kinase inhibitory activity of the candidate compound at 10 μM and 25 μM was assessed using Eurofins Kinase Profiling Services. Inhibitory effects on c-RAF, EGFR, ErbB2, ErbB4, and PI3 kinase were analyzed according to the Kinase Profiler Service Assay protocol.

Data set [4] deals with HER family kinases (EGFR, ErbB2, and ErbB4) or kinases associated with the AKT/MAPK pathway (PI3 kinase and c-RAF). The data set can be described thus: kinase profiling, summary over the panel. As to conditions: 10 μM and 25 μM. The format is biochemical. The method, then:
as §1

The subject of data set [5] is HER2. Nature of the data set: IHC of NCI-N87 xenograft tumors, HER2. Type of data set: in vivo, mice. Conditions: vs control group. The method, then: Xenograft mice were generated to evaluate the anticancer effects of the candidate compound. NCI-N87 and JIMT-1 cells (5×10^6 cells), dissolved in 100 μL of 1× phosphate-buffered saline (PBS), were subcutaneously injected into the right flanks of 5-week-old female athymic nude mice (Envigo, USA) or 4-week-old female NOD-SCID mice (Koatech, South Korea). When the tumors reached a volume of 90-100 mm^3, the mice were randomized into designated groups. For the NCI-N87 xenograft, intravenous administration was performed six times at 3-day intervals. For the JIMT-1 xenograft, intraperitoneal administration was performed eight times at 3-day intervals. […] Tumor size changes were monitored until the mean tumor size in the control group reached 2,000-2,500 mm^3. On day 28 for the NCI-N87 xenograft and day 46 for the JIMT-1 xenograft, the mice were sacrificed, and tumors were excised to determine relative tumor sizes. Tumor length (L) and width (W) were measured with calipers, and tumor volume was calculated using the formula: […]
For immunohistochemistry (IHC) analysis, tumors from the xenograft models were prepared as paraffin-embedded sections. […] The control group was counterstained with hematoxylin, and the IHC staining was evaluated under an optical microscope at 200× magnification.

Data set [6] relates to NCI-N87 cells. Nature of the data set: cell cycle analysis (FACS). The format is cell-based. The method, then:
Specifically, 5×10^5 NCI-N87 cells were seeded in 60 mm dishes and cultured until they reached 70-80% confluence. The cells were treated with varying concentrations of the candidate compound and cultured for 8 hours. The cells were treated with trypsin and then washed with cold PBS (pH 7.4). For cell cycle analysis, the cells were fixed with 70% ethanol and cultured at 4 °C for 30 minutes, followed by staining with FxCycle™ PI/RNase staining solution (Invitrogen™, USA). Cell cycle analysis was performed using a fluorescence-activated cell sorting (FACS) device (BD Biosciences, USA).

Data set [7] is described as follows: pharmacokinetic profiling. The format is in vivo.
The test system of data set [8] is HER2 and downstream signaling (phosphorylated AKT and MAPK). Nature of the data set: HER2 expression and downstream signaling, TZMB-sensitive and -resistant cells. The format is cell-based.
Description: For western blot analysis, cells were seeded in a 6-well plate and lysed in 1×RIPA lysis buffer (Cell Signaling, USA) containing 1% 0.1 M [COMPOUND LEFT OUT] and 1% 100× protease inhibitor cocktail solution (Genedepot, USA). Total protein levels were standardized using the Pierce™ BCA Protein Assay Kit (Thermo Fisher Scientific, USA) and a microplate reader (Tecan Group Ltd., Switzerland). A total of 20 μg of protein was loaded onto a 10-15% SDS-PAGE acrylamide gel and transferred to a 0.2 μm PVDF membrane (Pall Life Science, USA). The membrane was blocked with 5% skim milk or 5% BSA, and the membrane was cultured with primary antibodies (purchased from Thermo Fisher, Cell Signaling, Santa Cruz, Novus, or MBL) at room temperature for 3 hours or overnight at 4 °C. The blot was washed three times with Tris-buffered saline containing 0.1% Tween20 (1×TBST) and incubated with an HRP-conjugated secondary antibody (GeneTex, USA). Protein bands were detected using ECL solution reagents (GE Healthcare, USA) and the LAS-3000 imaging system (Fuji Photo Film Co., Ltd., Japan), and captured images were analyzed using Multi-Gauge software (Fuji Photo Film Co. Ltd.). The preparation of cell lysates for subsequent analyses was performed using the same method as described for western blot analysis.
The ability of the candidate compound to overcome trastuzumab resistance was evaluated.
In data set [9] the test system is TZMB-resistant cells. The data set can be described thus: clonal analysis. The format is cell-based. As to conditions: 14 days; TZMB 10 or 20 μg/mL, YK1 0.5 or 1 μM. The method, then: To validate the above results, clonal analysis was performed. […] The incubated cells were fixed with 100% methanol for 1 hour and then stained with 200 μL of crystal violet solution per well. After washing the cells with tap water, images were captured using a ChemiDoc bio-image analyzer (Bio-Rad), and quantification was performed with ImageJ software (NIH, Bethesda, MD, USA). All processes following the fixation were conducted at room temperature.

Sequence of EGFR (P00533 669-1210 limits assumed): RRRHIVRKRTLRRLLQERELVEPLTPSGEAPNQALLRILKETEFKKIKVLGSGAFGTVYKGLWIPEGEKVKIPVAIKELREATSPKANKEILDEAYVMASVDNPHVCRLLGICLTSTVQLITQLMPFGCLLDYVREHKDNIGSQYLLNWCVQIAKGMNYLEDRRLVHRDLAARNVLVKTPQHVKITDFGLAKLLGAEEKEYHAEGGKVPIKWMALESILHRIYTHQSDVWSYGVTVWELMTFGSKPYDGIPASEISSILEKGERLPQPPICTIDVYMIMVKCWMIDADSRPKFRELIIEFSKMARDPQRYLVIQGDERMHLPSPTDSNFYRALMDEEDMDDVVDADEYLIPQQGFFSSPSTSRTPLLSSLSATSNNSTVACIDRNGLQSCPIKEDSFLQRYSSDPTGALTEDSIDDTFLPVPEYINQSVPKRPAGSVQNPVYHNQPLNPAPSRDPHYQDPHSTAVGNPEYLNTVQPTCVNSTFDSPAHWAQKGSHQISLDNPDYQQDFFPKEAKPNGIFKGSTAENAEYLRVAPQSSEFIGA

Regarding `CC(=O)N1N=C(c2cccc(O)c2)CC1c1ccc(Cl)cc1` (centres unmarked) [Compound 15, 1-[5-(4-Chlorophenyl)-3-(3-hydroxyphenyl)-4,5-dihydropyrazol-1-yl]-ethanone], the “growth of NCI-N87 cells” value in data set [1] is recorded as “significantly inhibited the growth of NCI-N87 cells”. In addition, the IC50 – broadly, the concentration that inhibits the measured activity by half – in [1] (Homo sapiens, NCI-N87, HER2-positive) was found to be 1.56 ± 0.14 µM. Further, the Ki (commonly a dissociation constant, usually derived from enzyme kinetics or from competition with a known ligand) in [2] (80 nM (His)6-MED23391-582, 10 nM FITC-ELF3129-145, Cheng-Prusoff, read-out: PPI inhibitory activity calculated based on Ki value) is 4.27 ± 0.25 µM. In addition, the “decrease in FP signals” value in data set [2] (displacement of FITC-ELF3129-145 from MED23391-582) is “significant decrease in FP signals”. For the same compound, the inhibition at 10 µM in data set [3] (10 μM) came out at 0%. For the same compound, the inhibition at 25 µM in data set [3] (25 μM) is 0%. In [4], the “kinase inhibitory activity in words” value is listed as “no significant inhibitory activity”. For the same compound, the HER2 levels reduction result in [5] was “approximately 1.8 fold”. Also, in data set [6], the “G1 arrest, S and G2/M phases” value is “promoted overall G1 arrest, accompanied by a decrease in the S and G2/M phases”. Moreover, the G1 cell fraction entry in data set [6] (time- and dose-dependent) is “significant increase in the G1 cell fraction”. Further, in data set [7] (intravenous), the “half-life T1/2 (IV)” value is 9.74 ± 2.76 h. The “bioavailability (Ft)” value in [7] (intravenous and oral routes) is given as 25.1%. Besides, the “HER2 expression and downstream signaling” value in data set [8] was “significantly downregulated HER2 expression and downstream signaling, including phosphorylated AKT and MAPK”. Besides, the “effect against TZMB resistance in clonal analysis” value in data set [9] was “effective against TZMB resistance”.

Source of the values: US20260373119A1, “NOVEL COMPOUND, AND COMPOSITION FOR PREVENTING OR TREATING HER2-POSITIVE CANCER, COMPRISING SAME” (EWHA UNIVERSITY - INDUSTRY COLLABORATION FOUNDATION, priority 2022, published 2026).
